Laboratory results as given in publication PMC10095950, “Development of Cell Permeable NanoBRET Probes for the Measurement of PLK1 Target Engagement in Live Cells” (Molecules, 2023).
Where two headings read alike, the source gives them in different places.

How the values were obtained:
[1] = tested on: a range of cancer cell lines; set-up: method as in as in column Ref. of Table 1 ([5]-[8],[14],[19]-[21]); settings: ref as in Table 1 ([5]-[8],[14],[19]-[21]), read-out: Reported Cell Proliferation IC50; cited from earlier work
human PLK3 (NLuc-PLK3) = molecular target: T1, human PLK3 (NLuc-PLK3) (Homo sapiens, UniProt Q9H4B4); assay: PLK3 NanoBRET target engagement assay (NLuc-PLK3) in live HEK293 cells; type: cell-based; settings: HEK293, probe 11 1.0 µM, 2 h; average of two technical replicates ±15%
T1 construct: ORFs corresponding to UniProt isoform 1 (PLK1: P53350-1, PLK2: Q9NYY3-1, and PLK3: Q9H4B4-1); host or cells: HEK293
Experimental: (§1) HEK293 cells (ATCC) were cultured in DMEM (Gibco) + 10% FBS (Seradigm) with incubation in a humidified 37 °C/5% CO2 incubator. N- or C-terminal NLuc/PLK fusions were encoded in pFN31K expression vectors (Promega), including flexible Gly-Ser-Ser-Gly linkers between NLuc and ORFs corresponding to UniProt isoform 1 (PLK1: P53350-1, PLK2: Q9NYY3-1, and PLK3: Q9H4B4-1). Carrier DNA was encoded in pGEM-3Z vectors (Promega). For cellular BRET target engagement experiments, HEK293 cells were transfected with NLuc/PLK fusion constructs using FuGENE HD (Promega) according to the manufacturer’s protocol. Briefly, NLuc/PLK fusion constructs were diluted into Transfection Carrier DNA (Promega) at a mass ratio of 1:9 (mass/mass), after which FuGENE HD was added at a ratio of 1:3 (µg DNA: µL FuGENE HD). One part (vol) of FuGENE HD complexes thus formed was combined with 20 parts (vol) of HEK293 cells suspended at a density of 2 × 10^5 per mL, followed by incubation in a humidified 37 °C/5% CO2 incubator for 20 hr.
(§2) To test BRET probes 10 and 11 against PLK1, HEK293 adherent cells were incubated with either NLuc fused to the N-terminus of PLK1 (NLuc-PLK1) or the C-terminus of PLK1 (PLK1-NLuc) using 1 µM of the BRET probe, and mBRET units were measured. […] NLuc-PLK2 and NLuc-PLK3 were tested with both probes 10 and 11 using the same protocol.

human PLK2 (NLuc-PLK2) = molecular target: T2, human PLK2 (NLuc-PLK2) (Homo sapiens, UniProt Q9NYY3); assay: PLK2 NanoBRET target engagement assay (NLuc-PLK2) in live HEK293 cells; type: cell-based; settings: HEK293, probe 11 1.0 µM, 2 h; average of two technical replicates ±15%
T2 construct: ORFs corresponding to UniProt isoform 1 (PLK1: P53350-1, PLK2: Q9NYY3-1, and PLK3: Q9H4B4-1); host or cells: HEK293
Experimental: as §1, §2

PLK1 = settings: ref as in Table 1 ([5],[6],[8],[14],[19],[20],[21]); read-out: Reported Enzyme Inhibition IC50 PLK1; cited from earlier work
human PLK1 (NLuc-PLK1) = molecular target: T3, human PLK1 (NLuc-PLK1) (Homo sapiens, UniProt P53350); assay: PLK1 NanoBRET target engagement assay (NLuc-PLK1, N-terminal fusion) in live HEK293 cells; type: cell-based
T3 construct: plasmid DNAs encoding N- and C-terminal fusions of full-length PLK1 with NLuc; host or cells: HEK293
Experimental: as §1, with “Briefly, NLuc/PLK fusion constructs were diluted into Transfection Carrier DNA (Promega) at a mass ratio of 1:9 (mass/mass), after which FuGENE HD was added at a ratio of 1:3 (µg DNA: µL FuGENE HD).” left out
as §2
To estimate the half-maximal effective concentration (EC50) of probe 11 to PLK1 in cells, adherent HEK293 cells in a 96-well plate expressing the NLuc-PLK1 fusion protein were mixed with an increasing concentration of BRET probe 11. The resulting BRET ratio was fitted to the sigmoidal 4-parameter dose–response curve using Prism 9.0 (GraphPad, Boston MA, USA).

PLK1 (PLK1-NLuc) = molecular target: T4, PLK1 (PLK1-NLuc) (Homo sapiens, UniProt P53350); assay: BRET probe evaluation with NLuc fused to the C-terminus of PLK1 (PLK1-NLuc) in HEK293 cells; type: cell-based; settings: 1 µM probe, PLK1-NLuc (C-terminal fusion), adherent HEK293 cells
T4 construct: plasmid DNAs encoding N- and C-terminal fusions of full-length PLK1 with NLuc; host or cells: HEK293
Experimental: as §1
To test BRET probes 10 and 11 against PLK1, HEK293 adherent cells were incubated with either NLuc fused to the N-terminus of PLK1 (NLuc-PLK1) or the C-terminus of PLK1 (PLK1-NLuc) using 1 µM of the BRET probe, and mBRET units were measured. The combination with the highest mBRET units was selected for further processing. […]

T1 sequence (Q9H4B4 whole entry, canonical isoform): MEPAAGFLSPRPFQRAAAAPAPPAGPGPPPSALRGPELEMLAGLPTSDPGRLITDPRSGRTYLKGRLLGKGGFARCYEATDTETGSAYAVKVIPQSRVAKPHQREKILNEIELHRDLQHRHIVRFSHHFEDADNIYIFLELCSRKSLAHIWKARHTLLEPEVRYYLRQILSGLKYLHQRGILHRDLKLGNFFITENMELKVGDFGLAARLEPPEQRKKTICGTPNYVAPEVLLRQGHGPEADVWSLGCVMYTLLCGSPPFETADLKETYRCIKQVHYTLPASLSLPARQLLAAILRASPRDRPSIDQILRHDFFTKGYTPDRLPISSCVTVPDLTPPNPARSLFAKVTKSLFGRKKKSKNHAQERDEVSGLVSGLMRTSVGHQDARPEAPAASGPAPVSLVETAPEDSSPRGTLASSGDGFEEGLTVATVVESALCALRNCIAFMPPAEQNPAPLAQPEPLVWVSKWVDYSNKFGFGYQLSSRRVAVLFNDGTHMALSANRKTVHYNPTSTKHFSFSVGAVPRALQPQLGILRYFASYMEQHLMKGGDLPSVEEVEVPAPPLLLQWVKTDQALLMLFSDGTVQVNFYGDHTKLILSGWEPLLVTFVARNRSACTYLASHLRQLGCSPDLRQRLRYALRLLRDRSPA
T3 sequence (P53350 whole entry, the tested form may be a part): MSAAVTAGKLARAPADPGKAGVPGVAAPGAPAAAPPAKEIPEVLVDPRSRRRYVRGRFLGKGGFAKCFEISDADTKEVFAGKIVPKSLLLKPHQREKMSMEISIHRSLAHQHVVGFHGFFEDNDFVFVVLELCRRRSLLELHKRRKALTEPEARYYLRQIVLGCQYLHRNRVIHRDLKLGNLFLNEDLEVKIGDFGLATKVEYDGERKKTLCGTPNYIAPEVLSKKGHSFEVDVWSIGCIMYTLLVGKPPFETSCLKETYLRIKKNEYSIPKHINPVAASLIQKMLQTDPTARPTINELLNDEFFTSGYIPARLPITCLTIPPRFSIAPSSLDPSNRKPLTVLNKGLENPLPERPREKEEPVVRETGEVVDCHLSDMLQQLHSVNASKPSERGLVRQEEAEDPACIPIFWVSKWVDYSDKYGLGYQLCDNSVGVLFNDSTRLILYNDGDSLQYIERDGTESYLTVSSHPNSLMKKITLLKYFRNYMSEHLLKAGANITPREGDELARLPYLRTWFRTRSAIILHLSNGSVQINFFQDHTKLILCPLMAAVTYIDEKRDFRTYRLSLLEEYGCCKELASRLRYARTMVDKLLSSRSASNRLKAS
T2 sequence (Q9NYY3 whole entry, canonical isoform): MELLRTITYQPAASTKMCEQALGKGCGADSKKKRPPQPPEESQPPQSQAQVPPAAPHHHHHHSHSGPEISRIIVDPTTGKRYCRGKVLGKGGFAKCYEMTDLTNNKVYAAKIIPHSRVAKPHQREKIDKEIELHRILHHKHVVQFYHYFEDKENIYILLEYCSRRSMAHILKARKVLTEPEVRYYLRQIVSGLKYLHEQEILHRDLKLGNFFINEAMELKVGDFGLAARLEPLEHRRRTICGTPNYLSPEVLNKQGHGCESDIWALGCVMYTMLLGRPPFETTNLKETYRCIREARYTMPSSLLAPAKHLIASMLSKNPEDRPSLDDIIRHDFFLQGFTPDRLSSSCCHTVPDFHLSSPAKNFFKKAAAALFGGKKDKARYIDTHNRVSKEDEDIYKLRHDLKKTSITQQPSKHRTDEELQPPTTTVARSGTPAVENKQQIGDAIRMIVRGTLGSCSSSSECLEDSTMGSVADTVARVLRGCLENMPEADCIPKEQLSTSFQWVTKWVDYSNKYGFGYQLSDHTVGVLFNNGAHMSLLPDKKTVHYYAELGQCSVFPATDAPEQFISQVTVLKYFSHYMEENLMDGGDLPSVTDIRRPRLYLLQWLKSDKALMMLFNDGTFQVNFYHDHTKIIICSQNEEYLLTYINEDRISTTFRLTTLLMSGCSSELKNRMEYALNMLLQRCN
T4 sequence (P53350 whole entry, the tested form may be a part): as the sequence (P53350 whole entry, the tested form may be a part) above

IC50 (human PLK3 (NLuc-PLK3))	IC50 (human PLK2 (NLuc-PLK2))	SMILES	IC50 [1]	IC50 (PLK1)	further results
1700 nM	64 nM	CCC1(F)CN(C2CCCC2)c2nc(Nc3ccc(C(=O)NC4CCN(C)CC4)cc3OC)ncc2N(C)C1=O (stereo not drawn) [TPKI-26]	5 nM	–	–
–	–	CN1CCN(c2ccc(OC(F)(F)F)c(Nc3ncc4c(n3)-c3c(c(C(N)=O)nn3CCO)CC4)c2)CC1 [Onvansertib]	42 nM	[…]	–
180 nM	45 nM	COc1cc(C(=O)NC2CCN(C)CC2)ccc1Nc1ncc2c(n1)N(C1CCCC1)CC(F)(F)C(=O)N2C [Ro3280]	6 to 45 nM	–	–
–	–	C[C@@H](Oc1cc(-n2cnc3ccc(CN4CCN(C)CC4)cc32)sc1C(N)=O)c1ccccc1C(F)(F)F [GSK461364]	10 to 100 nM	–	–
–	–	Cc1ncc(CCCN(C)C)cc1Nc1ncc2c(n1)-c1ccc(C(F)(F)F)cc1NC(=S)C2 [MLN0905]	–	2 nM	–
–	–	CC[C@@H]1C(=O)N(C)c2cnc(Nc3ccc(C(=O)NC4CCNCC4)cc3OC)nc2N1C(C)C [compound 1, (R)-4-((7-ethyl-8-isopropyl-5-methyl-6-oxo-5,6,7,8-tetrahydropteridin-2-yl)amino)-3-methoxy-N-(piperidin-4-yl)benzamide]	–	–	IC50 (human PLK1 (NLuc-PLK1); Probe 11 Conc. 0.1 μM, NLuc-PLK1, ADH format, read-out: apparent IC50): 203 nM; IC50 (human PLK1 (NLuc-PLK1); Probe 11 Conc. 0.2 μM, NLuc-PLK1, ADH format, read-out: apparent IC50): 228 nM; IC50 (human PLK1 (NLuc-PLK1); Probe 11 Conc. 0.4 μM, NLuc-PLK1, ADH format, read-out: apparent IC50): 246 nM; IC50 (human PLK1 (NLuc-PLK1); Probe 11 Conc. 0.6 μM, NLuc-PLK1, ADH format, read-out: apparent IC50): 285 nM; IC50 (human PLK1 (NLuc-PLK1); Probe 11 Conc. 0.8 μM, NLuc-PLK1, ADH format, read-out: apparent IC50): 291 nM; IC50 (human PLK1 (NLuc-PLK1); Probe 11 Conc. 1 μM, NLuc-PLK1, ADH format, read-out: apparent IC50): 316 nM; Kd (human PLK1 (NLuc-PLK1); linearized Cheng–Prusoff analysis, y-intercept of IC50 vs probe 11 concentration, live HEK293 cells, read-out: apparent KD for intracellular target engagement of PLK1): 120 nM
–	–	CC[C@@H]1C(=O)N(C)c2cnc(Nc3ccc(C(=O)NC4CCN(C(=O)CCc5ccc6n5[B-](F)(F)[N+]5=C(c7ccc[nH]7)C=CC5=C6)CC4)cc3OC)nc2N1C(C)C [probe 10, (R)-N-(1-(3-(5,5-difluoro-7-(1H-pyrrol-2-yl)-5H-5^λ,6^λ-dipyrrolo[1,2-c:2’,1’-f][1-3]diazaborinin-3-yl)propanoyl)piperidin-4-yl)-4-((7-ethyl-8-isopropyl-5-methyl-6-oxo-5,6,7,8-tetrahydropteridin-2-yl)amino)-3-methoxybenzamide]	–	–	BRET ratio (PLK1 (PLK1-NLuc)): ~ 15; BRET ratio (human PLK1 (NLuc-PLK1); 1 µM probe, NLuc-PLK1, adherent HEK293 cells): ~ 39
59 nM	23 nM	CC[C@@H]1C(=O)N(C)c2cnc(Nc3ccc(C(=O)N[C@H]4CC[C@H](N5CCN(CC6CC6)CC5)CC4)cc3OC)nc2N1C(C)C [Volasertib]	11 to 37 nM	0.87 nM	IC50 (human PLK1 (NLuc-PLK1); HEK293, probe 11 0.2 µM, 2 h, average of two technical replicates ±15%, read-out: NanoBRET Target Engagement IC50 PLK1): 18 nM
